# Residues, ends and D or L forms follow the SMILES beside them. *: point of attachment. Cbz = O=C(OCc1ccccc1)*
# What was measured:
# Assay type in all cases: cell-based
# [1] = target: T1, 20S proteasome β1 subunit (caspase-like activity) (Rattus norvegicus, UniProt P28073); experiment: caspase-like activity (Z-LLE-MCA cleavage) in lysates of INS-1E cells treated with […] MG-132; settings: read-out: % inhibition at 150 nM
# T1 construct: gene Psmb6; with other subunits of the 20S/26S proteasome
# T1 sequence (P28073 34-238): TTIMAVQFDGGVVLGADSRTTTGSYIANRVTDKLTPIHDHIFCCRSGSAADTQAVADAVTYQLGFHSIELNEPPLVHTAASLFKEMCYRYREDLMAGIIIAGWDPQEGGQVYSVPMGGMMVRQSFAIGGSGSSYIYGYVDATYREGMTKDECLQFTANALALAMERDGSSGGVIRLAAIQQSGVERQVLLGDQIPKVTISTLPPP
# [2] = target: T2, 20S proteasome β5 subunit (chymotrypsin-like activity) (Rattus norvegicus, UniProt P28075); experiment: chymotrypsin-like activity (Suc-LLVY-MCA cleavage) in lysates of MG-132-treated INS-1E cells, dose-response
# T2 construct: gene Psmb5; with other subunits of the 20S/26S proteasome
# T2 sequence (P28075 60-263): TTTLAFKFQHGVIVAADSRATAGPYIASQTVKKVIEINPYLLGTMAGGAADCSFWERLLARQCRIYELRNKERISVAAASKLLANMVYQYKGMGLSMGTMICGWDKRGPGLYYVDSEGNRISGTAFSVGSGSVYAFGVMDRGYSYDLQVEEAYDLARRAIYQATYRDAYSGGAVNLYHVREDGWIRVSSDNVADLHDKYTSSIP
# [3] = target: T3, 20S proteasome β2 subunit (trypsin-like activity) (Rattus norvegicus, UniProt Q9JHW0); experiment: trypsin-like activity (Z-ARR-MCA cleavage) in lysates of INS-1E cells treated with […] MG-132; settings: read-out: % inhibition at 150 nM
# T3 construct: gene Psmb7; with other subunits of the 20S/26S proteasome
# T3 sequence (Q9JHW0 44-277): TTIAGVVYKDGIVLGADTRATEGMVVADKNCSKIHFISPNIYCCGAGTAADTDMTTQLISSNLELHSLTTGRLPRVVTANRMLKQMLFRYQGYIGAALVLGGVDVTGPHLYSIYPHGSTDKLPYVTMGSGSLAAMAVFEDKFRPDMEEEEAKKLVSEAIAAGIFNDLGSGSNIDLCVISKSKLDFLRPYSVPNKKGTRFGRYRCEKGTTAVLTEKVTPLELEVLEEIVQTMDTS
structure (smiles),measurement,setting,value
CC(C)C[C@@H](C=O)NC(=O)[C@H](CC(C)C)NC(=O)[C@H](CC(C)C)NC(=O)OCc1ccccc1 [MG-132] (Cbz-Leu-Leu-Leu-aldehyde),inhibition at 0.15 µM,[1],80%
same,Ki,[2],50 nM
same,inhibition at 0.15 µM,[3],50%
